System: rats subjected to adrenalectomy (granuloma around implanted cotton wads)
Assay: granulom test (cotton-pellet test) on rats subjected to adrenalectomy: granuloma growth, thymus weight, body weight increase
Format: in vivo, rat (Sprague-Dawley)
Settings: for Dose required to obtain 50% inhibition of Granuloma growth: Table 3, adrenalectomized young male Sprague-Dawley rats, topical in implanted cotton wads, day 8; for Dose required to obtain 25% inhibition of Body weight Increase / Dose required to obtain 50% inhibition of Thymus weight: 11520 min
Text: In the following this active stereoisomeric component will always be designated B. As regards the steroids referred to in connection with the present invention the stereoisomeric mixture as well as the individual stereoisomeric components A and B have been investigated with regard to antiinflammatory activity in granulom test on rats subjected to adrenalectomy. The experimental procedure used corresponds largely to that described by G. Engelhardt: Arzneimittel-Forschung, 13, p. 588, 1963. According to this procedure the test substances are applied topically in the implanted cottom wads. It is thereby possible to study the local antiinflammatory effect in granulomas and also systemic effects in the form of retrogression of thymus and inhibition of bodyweight growth.
Young male rats of the Sprague-Dawley strain weighing about 110-130 g were subjected to adrenalectomy under ether narcosis. Two sterilized cottom wads of each about 6 mg were implanted simultaneously subcutaneously on the lateral side of the spinal. After awakening the animals were stored 5 per cage and were supplied with normal food and 1% sodium chloride solution as drinking water. On the eighth test day the animals were sacrificed by ether narcosis. The granuloma formed around the cotton wads were carefully recovered and thymus and body weights were measured. The two granuloma from each animal were dried over night at 80° C and weighed. After subtraction of the initial weight of the cotton wads the weight increase was used as a measure of the granulom growth.
The test substances were used dissolved in ethyl acetate. Under aseptic conditions 0.05 ml of said solutions were injected into each of the cotton wads, whereafter the solvent was allowed to evaporate in the desiccator. Normally 3 concentrations of each test substance with the standard doses 3.3, 30 and 270 γ/animal were investigated. Each test group normally comprised 10 rats. The cotton wads of the control group were injected with only ethyl acetate, but were in other respects treated in the same way. When considering the effects of the test substances the average values of granulom growth, thymus weight and body weight increase day 0-8 were measured in each group in absolute figures and in % of the corresponding figure of the control group. Dose-response curves were drafted and used for estimating the doses giving 50 % reduction of granulom growth and of thymus weight and 25 % decrease of body weight increase.
The following Table 4 discloses the results of the cotton-pellet test hereinbefore described, giving in addition figures for the therapeutic ratios, that is, the ratios of the ED50 for thymus weight inhibition divided by the ED50 for granuloma formation inhibition, and the ED25 for body weight increase inhibition over the ED50 for granuloma formation inhibition. As will be recognized, the higher the number for the therapeutic ratio, the more favorable the therapeutic ratio. […] As will be noted for the table, the therapeutic ratio for thymus over granuloma for the Component A esters is 4.2, 7.1, 4.5, 2.6, 2.2, 1.7, 2.5 and 1.7 times as good as it is for the corresponding Component B ester isomer, whereas the therapeutic ratio for the Component A ester isomer as far as body weight is granuloma 2.7, 3.3, 9.8, 6.4, 2.3, 2.8, 3.3 and 2.8 times as favorable as for the corresponding Component B ester isomer.

Compound	Dose required to obtain 50% inhibition of Granuloma growth	Dose required to obtain 25% inhibition of Body weight Increase (rat, in vivo)	Dose required to obtain 50% inhibition of Thymus weight (rat, in vivo)	ED25 body weight increase inhibition (rat, in vivo)	ED50 thymus weight inhibition (rat, in vivo)	Therapeutic ratio body weight/granuloma (rat, in vivo)	Therapeutic ratio thymus/granuloma (rat, in vivo)	Therapeutic ratio body weight/granuloma (Table 4, ED25 body weight increase inhibition over ED50 granuloma formation inhibition)	Therapeutic ratio thymus/granuloma (Table 4, ED50 thymus weight inhibition divided by ED50 granuloma formation inhibition)
CCCCCC1O[C@@H]2C[C@H]3[C@@H]4CCC5=CC(=O)C=C[C@]5(C)[C@H]4[C@@H](O)C[C@]3(C)[C@]2(C(=O)CO)O1 (single isomer, unassigned) [13 A]	8 γ/animal	100 γ/animal	> 270 γ/animal	–	–	–	–	–	–
CCC1O[C@@H]2C[C@H]3[C@@H]4CCC5=CC(=O)C=C[C@]5(C)[C@@]4(F)[C@@H](O)C[C@]3(C)[C@]2(C(=O)CO)O1 (single isomer, unassigned) [2 B]	10 γ/animal	100 γ/animal	60 γ/animal	–	–	–	–	–	–
CCC1O[C@@H]2C[C@H]3[C@@H]4CCC5=CC(=O)C=C[C@]5(C)[C@@]4(F)[C@@H](O)C[C@]3(C)[C@]2(C(=O)CO)O1 (single isomer, unassigned) [2 A]	25 γ/animal	90 γ/animal	130 γ/animal	–	–	–	–	–	–
CCCCC(=O)OCC(=O)[C@@]12OC(CCC)O[C@@H]1C[C@H]1[C@@H]3CCC4=CC(=O)C=C[C@]4(C)[C@@]3(F)[C@@H](O)C[C@@]12C (single isomer, unassigned) [22 B]	< 3 γ/animal	5 γ/animal	35 γ/animal	3 µg/animal	35 µg/animal	> 1.7	> 11.7	–	–
CCCC1O[C@@H]2C[C@H]3[C@@H]4CCC5=CC(=O)C=C[C@]5(C)[C@H]4[C@@H](O)C[C@]3(C)[C@]2(C(=O)COC(C)=O)O1 (single isomer, unassigned) [27 B]	< 3 γ/animal	35 γ/animal	60 γ/animal	35 µg/animal	60 µg/animal	> 11.7	> 20.0	–	–
CCCC1O[C@@H]2C[C@H]3[C@@H]4CCC5=CC(=O)C=C[C@]5(C)[C@H]4[C@@H](O)C[C@]3(C)[C@]2(C(=O)COC(=O)c2cc3ccccc3o2)O1 (single isomer, unassigned) [28 A]	–	–	–	100 µg/animal	100 µg/animal	> 33.3	> 33.3	–	–
CC1O[C@@H]2C[C@H]3[C@@H]4CCC5=CC(=O)C=C[C@]5(C)[C@@]4(F)[C@@H](O)C[C@]3(C)[C@]2(C(=O)CO)O1 (single isomer, unassigned) [1 A]	270 γ/animal	60 γ/animal	115 γ/animal	–	–	–	–	–	–
CCCC1O[C@@H]2C[C@H]3[C@@H]4CCC5=CC(=O)C=C[C@]5(C)[C@H]4[C@@H](O)C[C@]3(C)[C@]2(C(=O)COC(=O)c2cc3ccccc3o2)O1 (single isomer, unassigned) [28 B]	–	–	–	35 µg/animal	60 µg/animal	> 11.7	> 20.0	–	–
CCCC1O[C@@H]2C[C@H]3[C@@H]4C[C@H](F)C5=CC(=O)C=C[C@]5(C)[C@@]4(F)[C@@H](O)C[C@]3(C)[C@]2(C(=O)COC(=O)c2cc3ccccc3o2)O1 (single isomer, unassigned) [25 A]	< 3 γ/animal	20 γ/animal	15 γ/animal	20 µg/animal	15 µg/animal	> 6.7	> 5.0	–	–
CCCC1O[C@@H]2C[C@H]3[C@@H]4C[C@H](F)C5=CC(=O)C=C[C@]5(C)[C@@]4(F)[C@@H](O)C[C@]3(C)[C@]2(C(=O)CO)O1 (single isomer, unassigned) [8 B]	4 γ/animal	50 γ/animal	10 γ/animal	–	–	–	–	–	–
CCCC1OC2CC3C4CCC5=CC(=O)C=CC5(C)C4(F)C(O)CC3(C)C2(C(=O)CO)O1 (mixture of isomers) [3 A+B]	10 γ/animal	> 30 γ/animal	> 30 γ/animal	–	–	–	–	–	–
CC1O[C@@H]2C[C@H]3[C@@H]4CCC5=CC(=O)C=C[C@]5(C)[C@@]4(F)[C@@H](O)C[C@]3(C)[C@]2(C(=O)CO)O1 (stereo partly shown) [1 A+B]	120 γ/animal	> 270 γ/animal	270 γ/animal	–	–	–	–	–	–
CCCCCC1O[C@@H]2C[C@H]3[C@@H]4CCC5=CC(=O)C=C[C@]5(C)[C@@]4(F)[C@@H](O)C[C@]3(C)[C@]2(C(=O)CO)O1 (single isomer, unassigned) [5 A]	30 γ/animal	> 270 γ/animal	90 γ/animal	–	–	–	–	–	–
CCCC1OC2CC3C4CC(F)C5=CC(=O)C=CC5(C)C4(F)C(O)CC3(C)C2(C(=O)COC(=O)c2cc3ccccc3o2)O1 (mixture of isomers) [25 A+B]	< 3 γ/animal	10 γ/animal	10 γ/animal	–	–	–	–	–	–
CCCCC(=O)OCC(=O)[C@@]12OC(CCC)O[C@@H]1C[C@H]1[C@@H]3CCC4=CC(=O)C=C[C@]4(C)[C@@]3(F)[C@@H](O)C[C@@]12C (single isomer, unassigned) [22 A]	< 3 γ/animal	33 γ/animal	90 γ/animal	33 µg/animal	90 µg/animal	> 11.0	> 30.0	–	–
CC1O[C@@H]2C[C@H]3[C@@H]4C[C@H](F)C5=CC(=O)C=C[C@]5(C)[C@@]4(F)[C@@H](O)C[C@]3(C)[C@]2(C(=O)COC(=O)c2cc3ccccc3o2)O1 (stereo partly shown) [23 A]	–	–	–	10 µg/animal	10 µg/animal	–	–	> 3.3	> 3.3

Source: patent US3996359A, “Novel stereoisomeric component A of stereoisomeric mixtures of 2'-unsymmetrical 16,17-methylenedioxy steroid 21-acylates, compositions thereof, and method of treating therewith” (AB Bofors, priority 1972, dated 1976)
